Data: patent US20230310428A1, “EGFR INHIBITOR AND PREPARATION METHOD AND USE THEREOF” (HONGYUN BIOTECH CO., LTD., priority 2020, published 2023)
Read-outs that look alike come from different tables or passages of the source.

Legend:
Experiment in all cases: Growth inhibitory activity of compounds on BaF3 cell lines stably transfected with kinase (MTS, 48 h)
Format in all cases: cell-based
[1] = target: T1, various mutants of kinase EGFR (BaF3 cell lines stably transfected with kinase) (Homo sapiens, UniProt P00533)
T1 construct: other: BaF3 cells stably transfected with EGFR Δ19Del; MTS, 48 h; other: BaF3 cell line stably transfected with EGFR Δ19Del
T1 sequence (P00533 with tags, fused parts or gaps DEL746-750): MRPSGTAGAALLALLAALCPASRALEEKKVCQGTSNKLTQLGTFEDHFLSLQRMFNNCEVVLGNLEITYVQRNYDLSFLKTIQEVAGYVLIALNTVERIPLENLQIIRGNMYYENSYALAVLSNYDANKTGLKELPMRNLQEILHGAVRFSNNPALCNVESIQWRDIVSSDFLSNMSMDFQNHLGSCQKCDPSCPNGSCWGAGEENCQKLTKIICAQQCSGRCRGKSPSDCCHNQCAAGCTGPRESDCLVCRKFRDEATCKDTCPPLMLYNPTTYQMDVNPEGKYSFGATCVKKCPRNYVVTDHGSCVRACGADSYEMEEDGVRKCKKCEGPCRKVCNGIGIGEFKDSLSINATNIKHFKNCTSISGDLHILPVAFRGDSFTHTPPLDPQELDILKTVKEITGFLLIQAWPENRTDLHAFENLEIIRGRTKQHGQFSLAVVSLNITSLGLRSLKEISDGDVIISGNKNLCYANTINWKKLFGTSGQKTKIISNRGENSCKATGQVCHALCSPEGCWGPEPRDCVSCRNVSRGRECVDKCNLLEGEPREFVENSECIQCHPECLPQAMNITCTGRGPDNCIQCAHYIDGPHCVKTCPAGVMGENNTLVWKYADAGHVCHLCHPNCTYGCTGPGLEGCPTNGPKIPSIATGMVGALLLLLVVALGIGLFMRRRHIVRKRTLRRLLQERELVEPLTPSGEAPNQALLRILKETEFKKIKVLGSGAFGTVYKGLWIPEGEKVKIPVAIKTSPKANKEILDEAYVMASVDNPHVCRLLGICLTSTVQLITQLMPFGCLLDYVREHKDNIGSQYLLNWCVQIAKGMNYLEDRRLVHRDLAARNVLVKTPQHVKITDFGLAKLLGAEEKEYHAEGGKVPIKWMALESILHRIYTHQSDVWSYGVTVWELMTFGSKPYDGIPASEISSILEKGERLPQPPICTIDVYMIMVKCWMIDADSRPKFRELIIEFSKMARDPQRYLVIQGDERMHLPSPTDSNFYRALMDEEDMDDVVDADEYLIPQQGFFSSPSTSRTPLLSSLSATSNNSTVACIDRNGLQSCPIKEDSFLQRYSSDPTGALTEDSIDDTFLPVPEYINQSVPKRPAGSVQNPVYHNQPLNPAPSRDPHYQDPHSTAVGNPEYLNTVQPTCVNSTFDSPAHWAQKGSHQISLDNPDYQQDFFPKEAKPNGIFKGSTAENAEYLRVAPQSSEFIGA
Experimental: (§1) The activity of compounds against various mutants of kinase EGFR was evaluated by their effect of inhibiting growth of BaF3 cell lines stably transfected with kinase. The specific test method was given as follows:
(§2) 1) Culture medium: DMEM (Dulbecco’s modified eagle medium) or RPMI 1640 (containing 10% fetal bovine serum, 100 µg/mL ampicillin, 100 µg/mL streptomycin).
(§3) 2) Reagent: MTS reaction solution (containing 2 mg/mL of MTS [3-(4,5-dimethylthiazol-2-yl)-5-(3-carboxymethoxyphenyl)-2-(4-sulfophenyl)-2H-tetrazoliu m, inner Salt]; 100 µg/mL of PES ([…])).
(§4) 3) Compound test: cells were incubated into a 96-well culture plate, the volume of cytosol was 90 µL, and then 10 µL of the compound at each gradient concentration was added. That is, the highest concentration was 10 µM, which was diluted stepwise by ⅓, and 8 concentration points were set in total; 0.1% DMSO (dimethyl sulfoxide) was contained in the system. The cell plate with uniformly mixed compound was cultured in a cell culture incubator (37° C.; 5% CO2) for 48 h, then 20 µL of MTS reaction solution was added, uniformly mixed and incubated in the cell culture incubator (37° C.; 5% CO2) for 1-4 h. OD values at 490 nm were measured by a microplate reader (VARIOSKAN FLASH, Thermo). Two parallels were set in each group of experiments, with 0.1% (a final concentration) DMSO as a negative control, and a culture medium without cells and compounds as a blank control. The cell growth inhibition rate was calculated by the following formula: […]
(§5) 4) IC50 calculation: The semi-inhibitory concentration of the compounds acting on cells was calculated using GradPad Prism 5 software according to the measured cell growth inhibition rate.

[2] = target: T2, various mutants of kinase EGFR (BaF3 cell lines stably transfected with kinase) (Homo sapiens, UniProt P00533, T790M, form not given)
T2 construct: other: BaF3 cells stably transfected with EGFR Δ19Del/T790M; MTS, 48 h; other: BaF3 cell line stably transfected with EGFR Δ19Del/T790M; MTS, 48
T2 sequence (P00533 with tags, fused parts or gaps DEL746-750/T790M, form open): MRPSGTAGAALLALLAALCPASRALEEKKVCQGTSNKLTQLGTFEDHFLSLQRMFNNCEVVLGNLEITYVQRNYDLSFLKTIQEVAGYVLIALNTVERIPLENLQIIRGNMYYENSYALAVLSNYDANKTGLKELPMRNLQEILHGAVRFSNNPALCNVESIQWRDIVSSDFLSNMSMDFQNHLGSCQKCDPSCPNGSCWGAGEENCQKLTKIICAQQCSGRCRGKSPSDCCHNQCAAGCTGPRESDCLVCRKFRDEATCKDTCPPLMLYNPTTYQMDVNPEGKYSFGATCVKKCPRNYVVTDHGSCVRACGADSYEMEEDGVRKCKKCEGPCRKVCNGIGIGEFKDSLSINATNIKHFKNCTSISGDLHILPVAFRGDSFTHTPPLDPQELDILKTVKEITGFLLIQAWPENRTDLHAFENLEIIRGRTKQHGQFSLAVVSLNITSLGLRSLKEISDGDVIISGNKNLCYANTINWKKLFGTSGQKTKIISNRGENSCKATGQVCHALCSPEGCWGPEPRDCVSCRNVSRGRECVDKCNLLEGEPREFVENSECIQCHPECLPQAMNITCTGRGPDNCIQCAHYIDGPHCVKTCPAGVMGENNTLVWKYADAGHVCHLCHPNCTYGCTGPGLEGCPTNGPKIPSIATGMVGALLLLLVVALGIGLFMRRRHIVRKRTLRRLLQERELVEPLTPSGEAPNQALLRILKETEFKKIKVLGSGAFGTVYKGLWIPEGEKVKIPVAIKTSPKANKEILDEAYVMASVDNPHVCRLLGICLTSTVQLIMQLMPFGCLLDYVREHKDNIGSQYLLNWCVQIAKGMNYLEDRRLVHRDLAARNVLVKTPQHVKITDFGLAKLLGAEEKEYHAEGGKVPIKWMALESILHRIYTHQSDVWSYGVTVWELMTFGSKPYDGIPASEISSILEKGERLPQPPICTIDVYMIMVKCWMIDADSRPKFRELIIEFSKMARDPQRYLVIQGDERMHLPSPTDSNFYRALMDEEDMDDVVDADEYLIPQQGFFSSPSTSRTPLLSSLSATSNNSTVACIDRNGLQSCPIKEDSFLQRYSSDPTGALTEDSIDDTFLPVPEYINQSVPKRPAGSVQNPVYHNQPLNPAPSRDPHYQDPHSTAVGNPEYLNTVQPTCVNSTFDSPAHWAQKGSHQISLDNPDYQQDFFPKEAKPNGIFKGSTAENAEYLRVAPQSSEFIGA
Experimental: as §1, §2, §3, §4, §5

[3] = target: T3, various mutants of kinase EGFR (BaF3 cell lines stably transfected with kinase) (Homo sapiens, UniProt P00533, C797S/L858R/T790M)
T3 construct: expressed in transfected cells; host or cells: BaF3
Experimental: as §1, §2, §3, §4, §5

[4] = target: T4, various mutants of kinase EGFR (BaF3 cell lines stably transfected with kinase) (Homo sapiens, UniProt P00533, L858R)
T4 construct: expressed in transfected cells; host or cells: BaF3
Experimental: as §1, §2, §3, §4, §5

[5] = target: T5, various mutants of kinase EGFR (BaF3 cell lines stably transfected with kinase) (Homo sapiens, UniProt P00533, T790M/C797S, form not given)
T5 construct: other: BaF3 cells stably transfected with EGFR Δ19Del/T790M/C797S; MTS, 48; other: BaF3 cell line stably transfected with EGFR Δ19Del/T790M/C7
T5 sequence (P00533 with tags, fused parts or gaps DEL746-750/T790M/C797S, form open): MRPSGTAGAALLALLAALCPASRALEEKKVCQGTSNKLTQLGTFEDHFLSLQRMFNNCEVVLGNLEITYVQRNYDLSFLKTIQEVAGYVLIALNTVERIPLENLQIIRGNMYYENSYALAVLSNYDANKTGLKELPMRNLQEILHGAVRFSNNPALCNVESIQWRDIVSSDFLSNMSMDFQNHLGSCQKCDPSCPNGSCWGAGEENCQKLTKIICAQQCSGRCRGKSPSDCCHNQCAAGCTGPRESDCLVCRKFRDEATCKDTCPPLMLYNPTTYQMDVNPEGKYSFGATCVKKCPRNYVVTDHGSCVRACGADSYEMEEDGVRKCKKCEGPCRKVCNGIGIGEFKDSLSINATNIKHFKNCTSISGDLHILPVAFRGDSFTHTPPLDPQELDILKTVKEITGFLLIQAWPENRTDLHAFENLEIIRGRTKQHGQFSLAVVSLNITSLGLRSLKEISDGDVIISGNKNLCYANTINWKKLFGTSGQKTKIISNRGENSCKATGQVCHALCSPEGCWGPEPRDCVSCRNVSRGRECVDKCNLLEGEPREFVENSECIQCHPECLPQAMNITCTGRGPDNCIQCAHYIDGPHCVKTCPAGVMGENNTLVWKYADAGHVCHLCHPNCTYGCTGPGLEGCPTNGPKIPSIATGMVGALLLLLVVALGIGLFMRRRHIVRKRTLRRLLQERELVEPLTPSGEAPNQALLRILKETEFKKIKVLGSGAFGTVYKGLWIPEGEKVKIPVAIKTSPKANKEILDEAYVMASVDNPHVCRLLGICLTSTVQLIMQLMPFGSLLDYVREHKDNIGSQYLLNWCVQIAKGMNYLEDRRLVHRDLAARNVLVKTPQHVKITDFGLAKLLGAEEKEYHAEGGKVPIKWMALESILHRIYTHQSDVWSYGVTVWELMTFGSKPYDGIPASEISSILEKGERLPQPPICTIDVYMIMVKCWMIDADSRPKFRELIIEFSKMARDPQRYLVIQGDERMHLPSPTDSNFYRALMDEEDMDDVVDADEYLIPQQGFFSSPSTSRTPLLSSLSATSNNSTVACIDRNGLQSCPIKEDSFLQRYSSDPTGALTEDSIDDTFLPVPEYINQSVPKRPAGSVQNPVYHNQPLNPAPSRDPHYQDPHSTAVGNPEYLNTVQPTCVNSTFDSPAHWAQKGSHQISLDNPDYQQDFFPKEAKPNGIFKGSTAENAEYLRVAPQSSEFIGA
Experimental: as §1, §2, §3, §4, §5

[6] = target: T6, various mutants of kinase EGFR (BaF3 cell lines stably transfected with kinase) (Homo sapiens, UniProt P00533, L858R/T790M)
T6 construct: expressed in transfected cells; host or cells: BaF3
T6 sequence (P00533 25-1210 T790M/L858R): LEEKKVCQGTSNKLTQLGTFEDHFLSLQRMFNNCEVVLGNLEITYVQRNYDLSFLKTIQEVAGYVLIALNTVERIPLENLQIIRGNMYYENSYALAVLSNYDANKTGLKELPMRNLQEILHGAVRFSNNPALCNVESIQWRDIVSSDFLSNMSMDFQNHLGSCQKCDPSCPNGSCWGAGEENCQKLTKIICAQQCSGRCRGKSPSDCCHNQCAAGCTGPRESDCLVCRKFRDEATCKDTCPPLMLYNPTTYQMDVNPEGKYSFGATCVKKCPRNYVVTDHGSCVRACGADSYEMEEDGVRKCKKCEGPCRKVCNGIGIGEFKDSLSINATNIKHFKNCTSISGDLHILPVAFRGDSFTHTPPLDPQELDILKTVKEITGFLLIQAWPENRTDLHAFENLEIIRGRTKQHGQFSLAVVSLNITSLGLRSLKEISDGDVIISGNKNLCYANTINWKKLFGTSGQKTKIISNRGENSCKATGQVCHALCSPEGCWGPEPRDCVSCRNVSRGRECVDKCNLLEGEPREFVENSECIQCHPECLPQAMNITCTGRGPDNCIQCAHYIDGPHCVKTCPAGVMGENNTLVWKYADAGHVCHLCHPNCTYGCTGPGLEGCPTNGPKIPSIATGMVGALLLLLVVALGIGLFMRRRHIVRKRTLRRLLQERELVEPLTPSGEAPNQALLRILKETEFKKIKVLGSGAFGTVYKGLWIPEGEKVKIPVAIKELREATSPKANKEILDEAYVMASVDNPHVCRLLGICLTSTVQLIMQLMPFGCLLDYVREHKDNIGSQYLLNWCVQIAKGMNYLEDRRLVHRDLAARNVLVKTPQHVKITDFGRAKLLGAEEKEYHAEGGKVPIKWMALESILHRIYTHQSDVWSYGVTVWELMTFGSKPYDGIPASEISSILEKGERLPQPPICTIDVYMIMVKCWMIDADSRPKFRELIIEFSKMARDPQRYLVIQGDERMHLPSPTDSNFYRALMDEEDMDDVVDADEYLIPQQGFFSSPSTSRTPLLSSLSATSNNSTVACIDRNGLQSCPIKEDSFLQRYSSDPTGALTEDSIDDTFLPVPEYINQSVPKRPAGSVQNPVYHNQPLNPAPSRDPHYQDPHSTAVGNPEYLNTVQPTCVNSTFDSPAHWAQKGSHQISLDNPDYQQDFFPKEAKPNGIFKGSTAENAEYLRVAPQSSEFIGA
Experimental: as §1, §2, §3, §4, §5

[7] = BaF3 cells stably transfected with EGFR Δ19Del, read-out: IC50, growth inhibition, Δ19Del
[8] = BaF3 cells stably transfected with EGFR Δ19Del/T790M, read-out: IC50, growth inhibition, Δ19Del/T790M
[9] = BaF3 cells stably transfected with EGFR L858R/T790M/C797S, read-out: IC50, growth inhibition, L858R/T790M/C797S
[10] = BaF3 cells stably transfected with EGFR L858R, read-out: IC50, growth inhibition, L858R
[11] = BaF3 cells stably transfected with EGFR Δ19Del/T790M/C797S, read-out: IC50, growth inhibition, Δ19Del/T790M/C797S
[12] = BaF3 cells stably transfected with EGFR L858R/T790M, read-out: IC50, growth inhibition, L858R/T790M
[13] = BaF3 cell line stably transfected with EGFR Δ19Del, read-out: Δ19Del growth inhibitory activity IC50
[14] = BaF3 cell line stably transfected with EGFR Δ19Del/T790M, read-out: Δ19Del/ T790M growth inhibitory activity IC50
[15] = BaF3 cell line stably transfected with EGFR L858R/T790M/C797S, read-out: L858R/T790M/ C797S growth inhibitory activity IC50
[16] = BaF3 cell line stably transfected with EGFR L858R, read-out: L858R growth inhibitory activity IC50
[17] = BaF3 cell line stably transfected with EGFR Δ19Del/T790M/C797S, read-out: Δ19Del/T790M/ C797S growth inhibitory activity IC50
[18] = BaF3 cell line stably transfected with EGFR L858R/T790M, read-out: L858R/ T790M growth inhibitory activity IC50

Row | Structure (SMILES) | IC50 [1, 7] [nM] | IC50 [2, 8] [nM] | IC50 [3, 9] [nM] | IC50 [4, 10] [nM] | IC50 [5, 11] [nM] | IC50 [6, 12] [nM] | IC50 [1, 13] [nM] | IC50 [2, 14] [nM] | IC50 [3, 15] [nM] | IC50 [4, 16] [nM] | IC50 [5, 17] [nM] | IC50 [6, 18] [nM]
1 | COc1cc(N2CCN(C)CC2)c(C)cc1Nc1nc(Nc2ccc3nccnc3c2N(C)S(C)(=O)=O)c2[nH]ccc2n1 [II-1-33] | – | – | – | – | – | – | 500 to 2500 | 500 to 2500 | 500 to 2500 | 500 to 2500 | 500 to 2500 | 500 to 2500
2 | CN1CCc2cc(OC(F)(F)F)c(Nc3ncc(Br)c(Nc4ccc5nccnc5c4N(C)S(C)(=O)=O)n3)cc2C1 [Compound I-90] | 50 to 500 | 500 to 2500 | 50 to 500 | 500 to 2500 | 500 to 2500 | 500 to 2500 | – | – | – | – | – | –
3 | COc1cc(N2CCC(N(C)C)CC2)c(C)cc1Nc1ncc(Br)c(Nc2ccc3nccnc3c2N(C2CC2)S(C)(=O)=O)n1 [Compound I-311] | – | – | – | – | – | – | 50 to 500 | ≤ 50 | ≤ 50 | 50 to 500 | ≤ 50 | ≤ 50
4 | CCc1cc(Nc2ncc(Cl)c(Nc3ccc4nccnc4c3N(C3CC3)S(C)(=O)=O)n2)c(OC)cc1N1CCC(N(C)C)CC1 [Compound I-162] | ≤ 50 | ≤ 50 | ≤ 50 | ≤ 50 | ≤ 50 | ≤ 50 | – | – | – | – | – | –
5 | CN1CCN(C2CCN(c3ccc(Nc4nc(Nc5ccc6nccnc6c5N(C)S(C)(=O)=O)c5occc5n4)c(OC(F)(F)F)c3)CC2)CC1 [II-1-40] | – | – | – | – | – | – | 500 to 2500 | 50 to 500 | 500 to 2500 | 500 to 2500 | 500 to 2500 | 500 to 2500
6 | CCc1cc(Nc2ncc(Cl)c(Nc3ccc4nccnc4c3N(C)S(C)(=O)=O)n2)c(OC(F)(F)F)cc1N1CCC(N2CCN(C)CC2)CC1 [Compound I-22] | 50 to 500 | ≤ 50 | ≤ 50 | 50 to 500 | ≤ 50 | 50 to 500 | – | – | – | – | – | –
7 | COc1cc(N2CCN(C)CC2)c(C)cc1Nc1ncc(Cl)c(Nc2ccc3nccnc3c2N(C)S(=O)(=O)C(F)(F)F)n1 [Compound I-266] | 500 to 2500 | 500 to 2500 | 50 to 500 | 500 to 2500 | 500 to 2500 | 500 to 2500 | – | – | – | – | – | –
8 | COc1ccc(CN2CCN(C)CC2)cc1Nc1ncc(Br)c(Nc2ccc3nccnc3c2N(C)S(C)(=O)=O)n1 [Compound I-83] | 50 to 500 | 500 to 2500 | 500 to 2500 | 50 to 500 | 500 to 2500 | 50 to 500 | – | – | – | – | – | –
9 | CCc1cc(Nc2ncc(C(F)(F)F)c(Nc3ccc4nccnc4c3N(C)S(C)(=O)=O)n2)c(OC)cc1N1CCC(N(C)C)CC1 [Compound I-206] | ≤ 50 | ≤ 50 | ≤ 50 | ≤ 50 | ≤ 50 | ≤ 50 | – | – | – | – | – | –
10 | CN1CCN(C2CCN(c3ccc(Nc4ncc(F)c(Nc5ccc6nccnc6c5N(C)S(C)(=O)=O)n4)c(OC(F)(F)F)c3)CC2)CC1 [Compound I-178] | 50 to 500 | 500 to 2500 | 500 to 2500 | 50 to 500 | 50 to 500 | 500 to 2500 | – | – | – | – | – | –
11 | CCc1cc(Nc2ncc(Br)c(Nc3ccc4nccnc4c3N(C3CC3)S(C)(=O)=O)n2)c(OC)cc1N1CCC(N2CCN(C)CC2)CC1 [Compound I-155] | 50 to 500 | ≤ 50 | ≤ 50 | ≤ 50 | ≤ 50 | ≤ 50 | – | – | – | – | – | –

More lines, now with the values ahead:

Row | IC50 [1, 7] [nM] | IC50 [2, 8] [nM] | IC50 [3, 9] [nM] | IC50 [4, 10] [nM] | IC50 [5, 11] [nM] | IC50 [6, 12] [nM] | IC50 [1, 13] [nM] | IC50 [2, 14] [nM] | IC50 [3, 15] [nM] | IC50 [4, 16] [nM] | IC50 [5, 17] [nM] | IC50 [6, 18] [nM] | Structure (SMILES)
12 | ≤ 50 | 50 to 500 | ≤ 50 | ≤ 50 | ≤ 50 | ≤ 50 | – | – | – | – | – | – | CCc1cc(Nc2ncc(F)c(Nc3ccc4nccnc4c3N(C)S(C)(=O)=O)n2)c(OC)cc1N1CCC(N(C)C)CC1 [Compound I-184]
13 | ≤ 50 | ≤ 50 | ≤ 50 | ≤ 50 | ≤ 50 | ≤ 50 | – | – | – | – | – | – | CCc1cc(Nc2ncc(C(F)(F)F)c(Nc3ccc4nccnc4c3N(C)S(C)(=O)=O)n2)c(OC)cc1N1CCC(N2CCN(C)CC2)CC1 [Compound I-35]
14 | – | – | – | – | – | – | ≤ 50 | ≤ 50 | ≤ 50 | ≤ 50 | ≤ 50 | ≤ 50 | CCc1cc(Nc2ncc(OC)c(Nc3ccc4nccnc4c3N(C)S(C)(=O)=O)n2)c(OC)cc1N1CCC(N2CCN(C)CC2)CC1 [Compound I-333]
15 | – | – | – | – | – | – | 500 to 2500 | 500 to 2500 | 500 to 2500 | 500 to 2500 | 50 to 500 | 500 to 2500 | COc1cc(N2CCC(N(C)C)CC2)c(C)cc1Nc1nc(Nc2ccc3nccnc3c2N(C)S(C)(=O)=O)c2[nH]ccc2n1 [II-1-31]
16 | 50 to 500 | 50 to 500 | 50 to 500 | 50 to 500 | ≤ 50 | 50 to 500 | – | – | – | – | – | – | CCc1cc(Nc2ncc(C(F)(F)F)c(Nc3ccc4nccnc4c3N(C)S(C)(=O)=O)n2)c(OC(F)(F)F)cc1N1CCC(N2CCN(C)CC2)CC1 [Compound I-201]
17 | 50 to 500 | ≤ 50 | 50 to 500 | 50 to 500 | ≤ 50 | ≤ 50 | – | – | – | – | – | – | CCc1cc(Nc2ncc([N+](=O)[O-])c(Nc3ccc4nccnc4c3N(C)S(C)(=O)=O)n2)c(OC)nc1N1CCC(N2CCN(C)CC2)CC1 [Compound I-190]
18 | 50 to 500 | 50 to 500 | 50 to 500 | 50 to 500 | ≤ 50 | 50 to 500 | – | – | – | – | – | – | CCc1cc(Nc2ncc(F)c(Nc3ccc4nccnc4c3N(C)S(C)(=O)=O)n2)c(OC(F)(F)F)cc1N1CCC(N2CCN(C)CC2)CC1 [Compound I-179]
19 | – | – | – | – | – | – | 50 to 500 | 50 to 500 | ≤ 50 | 50 to 500 | ≤ 50 | 50 to 500 | COc1cc(N2CCC(N3CCN(C)CC3)CC2)ccc1Nc1ncc(Cl)c(Nc2ccc3nccnc3c2N(C2CC2)S(C)(=O)=O)n1 [Compound I-303]
20 | ≤ 50 | ≤ 50 | ≤ 50 | ≤ 50 | ≤ 50 | ≤ 50 | – | – | – | – | – | – | CCc1cc(Nc2ncc(Cl)c(Nc3ccc4nccnc4c3N(C)S(=O)(=O)CC)n2)c(OC)cc1N1CCN(C)CC1 [Compound I-236]
21 | 50 to 500 | 50 to 500 | 50 to 500 | ≤ 50 | ≤ 50 | 50 to 500 | – | – | – | – | – | – | COc1cc(N2CCN(C)CC2)c(C)cc1Nc1ncc(F)c(Nc2ccc3nccnc3c2N(C)S(C)(=O)=O)n1 [Compound I-185]
22 | 50 to 500 | ≤ 50 | ≤ 50 | ≤ 50 | ≤ 50 | ≤ 50 | – | – | – | – | – | – | CCc1cc(Nc2ncc(Br)c(Nc3ccc4nccnc4c3N(C)S(=O)(=O)C(C)C)n2)c(OC)cc1N1CCC(N(C)C)CC1 [Compound I-137]
23 | ≤ 50 | 50 to 500 | 50 to 500 | ≤ 50 | ≤ 50 | ≤ 50 | – | – | – | – | – | – | CCc1cc(Nc2ncc(F)c(Nc3ccc4nccnc4c3N(C)S(=O)(=O)C3CC3)n2)c(OC)cc1N1CCC(N2CCN(C)CC2)CC1 [Compound I-249]
